Results on 18 compounds are retold here after ChEMBL document CHEMBL1147496, “Synthesis and anti-inflammatory activity of some [4,6-(4-substituted aryl)-2-thioxo-1,2,3,4-tetrahydro-pyrimidin-5-yl]-acetic acid derivatives” (2004).

The subject of this assay is Rattus norvegicus. Put plainly: Anti-inflammatory activity was determined by carangeenan-induced rat paw edema test in albino rats. The class given is functional. Also on record: concentration or dose not given beside the values.
One may read the Inhibition as the relative decrease from the control value, in per cent. Compound `O=C(O)CC1=C(c2ccc(Cl)cc2)N=C(S)NC1c1cccs1` (stereo not drawn) displayed an Inhibition of 16%.
With `Cc1ccc(C2=C(CC(=O)O)C(c3ccccc3)NC(S)=N2)cc1` (stereo not drawn) the figure was 28%.
The value for `O=C(O)CC1=C(c2ccc(Cl)cc2)N=C(S)NC1c1ccc(Cl)cc1` (stereo not drawn) was 25%; that for `O=C(O)CC1=C(c2ccc(Cl)cc2)N=C(S)NC1c1ccco1` (stereo not drawn) was 9%.
`O=C(O)CC1=C(c2ccccc2)N=C(S)NC1c1ccccc1` (stereo not drawn) showed an Inhibition of 17%.
The value for `O=C(O)CC1=C(c2ccccc2)N=C(S)NC1c1cccnc1` (stereo not drawn) was 15%; that for `O=C(O)CC1=C(c2ccccc2)N=C(S)NC1c1cccs1` (stereo not drawn) was 21%.
Compound `Cc1ccc(C2=C(CC(=O)O)C(c3ccc(Cl)cc3)NC(S)=N2)cc1` (stereo not drawn) yielded an Inhibition of 22%.
With `COc1ccc(C2NC(S)=NC(c3ccc(Cl)cc3)=C2CC(=O)O)cc1` (stereo not drawn) the figure was 35%; with `COc1ccc(C2NC(S)=NC(c3ccc(C)cc3)=C2CC(=O)O)cc1` (stereo not drawn), 33%; with `Cc1ccc(C2=C(CC(=O)O)C(c3cccs3)NC(S)=N2)cc1` (stereo not drawn), 10%.
`O=C(O)CC1=C(c2ccc(Cl)cc2)N=C(S)NC1c1cccnc1` (stereo not drawn) had an Inhibition of 11%.
`O=C(O)CC1=C(c2ccccc2)N=C(S)NC1c1ccc(Cl)cc1` (stereo not drawn) returned an Inhibition of 30%.
Consider `O=C(O)CC1=C(c2ccccc2)N=C(S)NC1c1ccco1` (stereo not drawn), for which the Inhibition is 19%.
With `COc1ccc(C2NC(S)=NC(c3ccccc3)=C2CC(=O)O)cc1` (stereo not drawn), the Inhibition is reported as 32%.
The compound `Cc1ccc(C2=C(CC(=O)O)C(c3ccco3)NC(S)=N2)cc1` (stereo not drawn) showed an Inhibition of 11%.
Regarding `Cc1ccc(C2=C(CC(=O)O)C(c3cccnc3)NC(S)=N2)cc1` (stereo not drawn), the Inhibition came to 7%.
With `O=C(O)CC1=C(c2ccc(Cl)cc2)N=C(S)NC1c1ccccc1` (stereo not drawn) the figure was 20%.
